Test results as given in patent US9943529B2, “Methods for reducing cellular proliferation and treating certain diseases” (BRIGHAM YOUNG UNIVERSITY, priority 2013, dated 2018).

Key:
LOX IMVI = test: NCI screen antiproliferative activity, sulforhodamine B, Melanoma panel; type: cell-based, human; details: 48 hours, five 10-fold dilutions starting from 100 μM
K-562 = test: NCI screen antiproliferative activity, sulforhodamine B, Leukemia panel; type: cell-based, human; details: five 10-fold dilutions starting from 100 μM
OVCAR-8 = test: cells; details: Homo sapiens, OVCAR-8, 48 h
T-47D [1] = details: 48 hours, five 10-fold dilutions starting from 100 μM
MDA-MB-435 = details: 48 hours, five 10-fold dilutions starting from 100 μM
CAKI-1 = details: 48 hours, five 10-fold dilutions starting from 100 μM
OVCAR-4 [2] = details: 48 hours, five 10-fold dilutions starting from 100 μM
HCT-15 = test: cells; details: Homo sapiens, HCT-15, 48 h
SF-295 = details: 48 hours, five 10-fold dilutions starting from 100 μM
SN12C = details: 48 hours, five 10-fold dilutions starting from 100 μM
OVCAR-3 = details: 48 hours, five 10-fold dilutions starting from 100 μM
EKVX = details: 48 hours, five 10-fold dilutions starting from 100 μM
OVCAR-4 [3] = test: cells; details: Homo sapiens, OVCAR-4, 48 h
SK-MEL-28 [4] = test: cells; details: Homo sapiens, SK-MEL-28, 48 h
T-47D [5] = test: cells; details: Homo sapiens, T47D, 48 h
ACHN = details: 48 hours, five 10-fold dilutions starting from 100 μM
HOP-92 [6] = test: cells; details: Homo sapiens, HOP-92, 48 h
SK-MEL-28 [7] = details: 48 hours, five 10-fold dilutions starting from 100 μM
SK-MEL-5 = test: NCI screen antiproliferative activity, sulforhodamine B, Melanoma panel; type: cell-based, human; details: 48 hours, five 10-fold dilutions starting from 100 μM
U251 [8] = test: cells; details: Homo sapiens, U-251, 48 h
DU-145 = details: 48 hours, five 10-fold dilutions starting from 100 μM
786-0 = test: cells; details: Homo sapiens, 786-0, 48 h
TK-10 [9] = details: 48 hours, five 10-fold dilutions starting from 100 μM
M14 = test: cells; details: Homo sapiens, M14, 48 h
NCI-ADR-RES = details: 48 hours, five 10-fold dilutions starting from 100 μM
MCF7 = test: cells; details: Homo sapiens, MCF7, 48 h
NCI-H23 = test: cells; details: Homo sapiens, NCI-H23, 48 h
SR = test: NCI screen antiproliferative activity, sulforhodamine B, Leukemia panel; type: cell-based, human; details: 48 hours, five 10-fold dilutions starting from 100 μM
BT-549 [10] = details: 48 hours, five 10-fold dilutions starting from 100 μM
HCC-2998 = details: 48 hours, five 10-fold dilutions starting from 100 μM
BT-549 [11] = test: cells; details: Homo sapiens, BT-549, 48 h
SF-539 = test: cells; details: Homo sapiens, SF-539, 48 h
SK-OV-3 = details: 48 hours, five 10-fold dilutions starting from 100 μM
HOP-92 [12] = details: 48 hours, five 10-fold dilutions starting from 100 μM
UO-31 = test: cells; details: Homo sapiens, UO-31, 48 h
MALME-3M = test: NCI screen antiproliferative activity, sulforhodamine B, Melanoma panel; type: cell-based, human; details: 48 hours, five 10-fold dilutions starting from 100 μM
MDA-MB-231/ATCC = details: 48 hours, five 10-fold dilutions starting from 100 μM
UACC-62 = details: 48 hours, five 10-fold dilutions starting from 100 μM
TK-10 [13] = test: cells; details: Homo sapiens, TK-10, 48 h
PC-3 = test: cells; details: Homo sapiens, PC-3, 48 h
U251 [14] = details: 48 hours, five 10-fold dilutions starting from 100 μM
HOP-62 = details: 48 hours, five 10-fold dilutions starting from 100 μM
HCT-116 = test: cells; details: Homo sapiens, HCT-116, 48 h
SNB-75 = details: 48 hours, five 10-fold dilutions starting from 100 μM
MOLT-4 = test: NCI screen antiproliferative activity, sulforhodamine B, Leukemia panel; type: cell-based, human; details: 48 hours, five 10-fold dilutions starting from 100 μM

## CCCCCCCCNCCC[C@@H](C)[C@H]1CC[C@H]2[C@@H]3[C@H](OCCCN)C[C@@H]4C[C@H](OCCCN)CC[C@]4(C)[C@H]3C[C@H](OCCCN)[C@]12C [CSA-13]
LOX IMVI
  TGI: 1.73 µM
LOX IMVI; Homo sapiens
  GI50: 0.378 µM
K-562; 48 hours
  TGI: 2.47 µM
K-562; Homo sapiens, K562, 48 hours
  GI50: 1.04 µM
OVCAR-8
  GI50: 1.64 µM
OVCAR-8; read-out: LC50
  CC50: 9.82 µM
T-47D [1]
  TGI: 7.13 µM
MDA-MB-435
  TGI: 1.46 µM
CAKI-1
  TGI: 10.6 µM
OVCAR-4 [2]
  TGI: 25.2 µM
HCT-15
  GI50: 2.63 µM
HCT-15; read-out: LC50
  CC50: 63.9 µM
SF-295
  TGI: 2.66 µM
SN12C
  TGI: 3.55 µM
OVCAR-3
  TGI: 14.8 µM
EKVX
  TGI: 3.38 µM
OVCAR-4 [3]
  GI50: 5.51 µM
OVCAR-4 [3]; read-out: LC50
  CC50: 83 µM
SK-MEL-28 [4]
  GI50: 0.291 µM
SK-MEL-28 [4]; read-out: LC50
  CC50: 5.46 µM
T-47D [5]
  GI50: 1.92 µM
T-47D [5]; read-out: LC50
  CC50: > 100 µM
ACHN
  TGI: 3.68 µM
HOP-92 [6]
  GI50: 0.408 µM
HOP-92 [6]; read-out: LC50
  CC50: > 100 µM
SK-MEL-28 [7]
  TGI: 1.27 µM
SK-MEL-5
  TGI: 1.92 µM
SK-MEL-5; Homo sapiens
  GI50: 0.504 µM
U251 [8]
  GI50: 1.37 µM
U251 [8]; read-out: LC50
  CC50: 6.81 µM
DU-145
  TGI: 2.35 µM
786-0
  GI50: 0.837 µM
786-0; read-out: LC50
  CC50: 5.4 µM
TK-10 [9]
  TGI: 4.70 µM
M14
  GI50: 1.18 µM
M14; read-out: LC50
  CC50: 12.6 µM
NCI-ADR-RES
  TGI: 5.33 µM
MCF7
  GI50: 1.63 µM
MCF7; read-out: LC50
  CC50: 5.85 µM
NCI-H23
  GI50: 1.24 µM
NCI-H23; read-out: LC50
  CC50: 7.87 µM
SR
  TGI: 2.29 µM
SR; Homo sapiens
  GI50: 0.272 µM
BT-549 [10]
  TGI: 3.28 µM
HCC-2998
  TGI: 3.98 µM
BT-549 [11]
  GI50: 1.07 µM
BT-549 [11]; read-out: LC50
  CC50: > 100 µM
SF-539
  GI50: 0.318 µM
SF-539; read-out: LC50
  CC50: 4.89 µM
SK-OV-3
  TGI: 16.3 µM
HOP-92 [12]
  TGI: 21.2 µM
UO-31
  GI50: 1.49 µM
UO-31; read-out: LC50
  CC50: > 100 µM
MALME-3M
  TGI: 3.88 µM
MALME-3M; Homo sapiens
  GI50: 1.76 µM
MDA-MB-231/ATCC
  TGI: 4.08 µM
UACC-62
  TGI: 2.29 µM
TK-10 [13]
  GI50: 0.974 µM
TK-10 [13]; read-out: LC50
  CC50: > 100 µM
PC-3
  GI50: 3.74 µM
PC-3; read-out: LC50
  CC50: > 100 µM
U251 [14]
  TGI: 3.05 µM
HOP-62
  TGI: 2.96 µM
HCT-116
  GI50: 0.87 µM
HCT-116; read-out: LC50
  CC50: 7.25 µM
SNB-75
  TGI: 5.93 µM
MOLT-4
  TGI: 2.93 µM
MOLT-4; Homo sapiens
  GI50: 1.25 µM
